Laboratory results: US6762036B2, “Cellular physiology workstations for automated data acquisition and perfusion control” (Trustees of Boston University, priority 1995, dated 2004)

Key:
Type in all cases: cell-based
[1] = tested on: kainate responses in oocytes injected with rat brain poly A+ mRNA; assay: Effect of pregnenolone sulfate on kainate dose-response curve in oocytes injected with rat brain poly A+ mRNA; conditions: with and without pregnenolone sulfate, Vh about −100 mV, FIG. 9
Protocol: Poly A^+ mRNA are extracted from brain tissue and neuronal cell culture using a magnetic separation protocol based on the Dynabeads Oligo (dT)25 kit (Dynal, Olso, Norway). Briefly, the protocol utilized magnetic beads that have an attached poly-T moiety which can bind poly A^+ mRNA for separation. Tissue is homogenized, cells are disrupted, and the lysate is added to an aliquot of Dynabeads. Magnetic separation efficiently yields mRNA that is suitable for direct injection into oocytes. Batches of about 20 to about 30 select oocytes are injected with about 50 to about 100 ng of neuronal poly A^+ mRNA. Alternatively, oocytes may be injected with about 30 μl to about 80 μl of RNA prepared from in vitro transcription of cDNA clones. In either case, injection may be performed using a Drummond electronic microinjector. Oocytes are then maintained at about 18° C. to about 19° C. for about 2 to about 4 days to allow protein expression prior to electrophysiological recordings. After incubation, electrophysiological analysis of expressed receptors and ion channels may be performed using a system according to the present invention.
About 3 days to about 5 days after RNA injection, electrophysiological recordings were carried out using an Axoclamp-2A voltage clamp amplifier (Axon Instruments, Inc.). […]

[2] = target: T1, recombinant GluR6 kainate receptors (Homo sapiens, UniProt Q13002); assay: Effects of steroids on recombinant GluR6 kainate receptors in oocytes; conditions: recombinant GluR6, Vh about −100 mV, FIG. 11
T1 construct: expressed in transfected cells; host or cells: Xenopus laevis oocytes injected with in vitro transcribed GluR6 cRNA
T1 sequence (Q13002 32-908): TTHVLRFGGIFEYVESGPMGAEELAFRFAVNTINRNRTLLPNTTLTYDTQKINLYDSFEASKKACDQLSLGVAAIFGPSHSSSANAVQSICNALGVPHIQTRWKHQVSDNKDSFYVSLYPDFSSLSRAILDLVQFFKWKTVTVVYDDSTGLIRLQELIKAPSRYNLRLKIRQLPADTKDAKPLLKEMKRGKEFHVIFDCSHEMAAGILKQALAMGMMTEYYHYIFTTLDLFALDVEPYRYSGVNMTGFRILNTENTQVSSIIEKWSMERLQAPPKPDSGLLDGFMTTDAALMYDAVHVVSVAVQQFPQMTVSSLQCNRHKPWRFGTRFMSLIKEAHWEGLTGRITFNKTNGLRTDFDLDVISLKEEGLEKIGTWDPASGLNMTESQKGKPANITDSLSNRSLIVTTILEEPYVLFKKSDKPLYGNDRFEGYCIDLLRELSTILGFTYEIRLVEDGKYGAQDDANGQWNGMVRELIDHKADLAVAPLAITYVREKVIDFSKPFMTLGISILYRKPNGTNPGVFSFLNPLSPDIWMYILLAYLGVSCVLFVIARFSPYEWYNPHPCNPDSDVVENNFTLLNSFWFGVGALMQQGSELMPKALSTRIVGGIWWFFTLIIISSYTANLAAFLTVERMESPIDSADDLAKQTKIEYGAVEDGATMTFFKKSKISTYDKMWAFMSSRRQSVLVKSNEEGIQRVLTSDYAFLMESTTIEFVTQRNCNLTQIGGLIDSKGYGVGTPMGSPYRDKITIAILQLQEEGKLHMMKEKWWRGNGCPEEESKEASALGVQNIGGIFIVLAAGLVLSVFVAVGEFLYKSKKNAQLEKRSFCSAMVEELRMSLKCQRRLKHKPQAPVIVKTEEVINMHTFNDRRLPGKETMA
Protocol: All measurements were performed under Vh of about −100 mV.
About 3 days to about 5 days after RNA injection, electrophysiological recordings were carried out using an Axoclamp-2A voltage clamp amplifier (Axon Instruments, Inc.). Experiments were performed in two-electrode voltage clamp mode using two intracellular microelectrodes of about 1 to about 3 mega-ohm resistance filled with a solution of about 3M KCl.
Oocytes were usually clamped at a holding potential of about −60 mV and stepped to about −100 mV during agent application.

[3] = tested on: metabotropic glutamate receptors; assay: Inhibition of kainate responses by stimulation of metabotropic glutamate receptors in oocytes injected with rat brain poly A+ mRNA; conditions: about 500 μM tACPD, about 100 μM kainate, repetitive applications, FIG. 14
Protocol: Poly A^+ mRNA are extracted from brain tissue and neuronal cell culture using a magnetic separation protocol based on the Dynabeads Oligo (dT)25 kit (Dynal, Olso, Norway). Briefly, the protocol utilized magnetic beads that have an attached poly-T moiety which can bind poly A^+ mRNA for separation. Tissue is homogenized, cells are disrupted, and the lysate is added to an aliquot of Dynabeads. Magnetic separation efficiently yields mRNA that is suitable for direct injection into oocytes. Batches of about 20 to about 30 select oocytes are injected with about 50 to about 100 ng of neuronal poly A^+ mRNA. Alternatively, oocytes may be injected with about […] of RNA prepared from in vitro transcription of cDNA clones. In either case, injection may be performed using a Drummond electronic microinjector. Oocytes are then maintained at about 18° C. to about 19° C. for about 2 to about 4 days to allow protein expression prior to electrophysiological recordings. After incubation, electrophysiological analysis of expressed receptors and ion channels may be performed using a system according to the present invention.

Row | Compound | Effect on Emax of kainate dose-response curve [1] | Effect on maximal response to kainate [2] | Effect on responses to kainate [3]
1 | pregnenolone sulfate | decrease in Emax | decrease the maximal response to kainate | 
2 | N[C@]1(C(=O)O)CC[C@H](C(=O)O)C1 [tACPD] |  |  | can inhibit responses to kainate
